Results: paper PMC8216263 (Pharmaceutical Biology, 2021)

How the values were obtained:
[1] = target: T1, OATP1B1 (Homo sapiens, UniProt Q9Y6L6); experiment: Inhibition of OATP1B1-mediated 3H-ES uptake in HEK293-OATP1B1 cells; format: cell-based; conditions: GA 50–5000 μg/L, PCA 10–1000 μg/L
T1 sequence (Q9Y6L6 1-691): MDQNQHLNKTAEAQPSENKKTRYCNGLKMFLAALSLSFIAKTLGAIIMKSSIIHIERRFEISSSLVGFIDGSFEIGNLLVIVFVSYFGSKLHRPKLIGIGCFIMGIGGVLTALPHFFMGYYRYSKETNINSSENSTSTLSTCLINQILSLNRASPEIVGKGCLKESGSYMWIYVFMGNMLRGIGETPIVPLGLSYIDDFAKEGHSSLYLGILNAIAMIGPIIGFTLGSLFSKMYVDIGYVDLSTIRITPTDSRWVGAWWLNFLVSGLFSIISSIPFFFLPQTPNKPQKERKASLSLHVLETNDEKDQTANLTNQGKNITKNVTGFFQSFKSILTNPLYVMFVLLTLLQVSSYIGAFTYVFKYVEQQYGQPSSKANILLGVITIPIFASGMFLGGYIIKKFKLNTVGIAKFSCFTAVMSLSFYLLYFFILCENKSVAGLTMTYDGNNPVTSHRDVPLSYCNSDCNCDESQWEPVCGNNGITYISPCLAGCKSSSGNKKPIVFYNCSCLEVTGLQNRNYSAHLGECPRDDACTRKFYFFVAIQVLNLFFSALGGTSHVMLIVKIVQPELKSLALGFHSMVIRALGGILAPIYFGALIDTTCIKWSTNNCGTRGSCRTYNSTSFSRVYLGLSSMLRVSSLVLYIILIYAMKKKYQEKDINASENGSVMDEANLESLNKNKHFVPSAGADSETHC
Text: The human multidrug resistance protein (MDR)1-transfected Madin–Darby Canine Kidney (MDCK) cells, human breast cancer resistance protein (BCRP)-transfected MDCK cells, human organic anion transporter (OAT)1-transfected MDCK cells, OAT3-transfected second portion of proximal tubule (S2) cells, human organic cation transporter (OCT)2-transfected S2 cells, human organic anion transporting polypeptide (OATP)1B1-transfected human embryonic kidney 293 (HEK293) cells and their MOCK cells were kindly provided by Japan Fuji Biomedical Co., Ltd. (Osaka, Japan). Cells were cultured in DMEM supplemented with 10% FBS, 100 units/mL penicillin and 100 […]. All cells were incubated in a humidified atmosphere of 95% air and 5% CO2 at 37 °C. A solution of 0.25% trypsin-EDTA was used to detach the cells from flasks. Cell culture flasks, 24-well cell culture plates, and transwell polycarbonate inserts (12 mm diameter, 0.4 μm pore size) were purchased from Corning Co-star Corp. (Bedford, MA).
Concentration-dependent inhibitions were conducted to study GA and PCA’s inhibitory effects on uptake transporters OAT1, OAT3, OCT2 and OATP1B1. The MDCK-OAT1, S2-OAT3, S2-OCT2 and HEK293-OATP1B1 cell lines were utilized in this study. […] The radioactive intensity was measured using a Tri-Carb 2910TR scintillator (PerkinElmer, Waltham, MA). […]

[2] = target: T2, OAT3 (Homo sapiens, UniProt Q8TCC7); experiment: Inhibition of OAT3-mediated 3H-ES uptake in S2-OAT3 cells; format: cell-based; conditions: GA 50–5000 μg/L, PCA 10–1000 μg/L
T2 construct: host or cells: S2 (second portion of proximal tubule) cells
T2 sequence (Q8TCC7 1-542): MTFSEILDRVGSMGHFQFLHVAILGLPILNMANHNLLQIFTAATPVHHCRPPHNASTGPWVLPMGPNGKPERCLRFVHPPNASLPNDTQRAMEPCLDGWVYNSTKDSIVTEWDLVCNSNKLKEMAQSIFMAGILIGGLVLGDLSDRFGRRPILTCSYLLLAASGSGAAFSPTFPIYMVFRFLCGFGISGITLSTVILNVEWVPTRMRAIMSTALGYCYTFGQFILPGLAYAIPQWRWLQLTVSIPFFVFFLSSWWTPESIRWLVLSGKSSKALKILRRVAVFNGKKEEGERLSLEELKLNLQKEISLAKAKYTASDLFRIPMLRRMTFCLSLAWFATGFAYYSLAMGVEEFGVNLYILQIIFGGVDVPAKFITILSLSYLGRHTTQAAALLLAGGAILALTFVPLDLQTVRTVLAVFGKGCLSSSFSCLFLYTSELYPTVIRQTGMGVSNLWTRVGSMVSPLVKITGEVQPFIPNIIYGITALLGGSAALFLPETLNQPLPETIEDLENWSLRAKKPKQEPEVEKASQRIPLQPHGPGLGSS
Method: Cells were cultured in DMEM supplemented with 10% FBS, 100 units/mL penicillin and 100 units/mL streptomycin. […] Cell culture flasks, 24-well cell culture plates, and transwell polycarbonate inserts (12 mm diameter, 0.4 μm pore size) were purchased from Corning Co-star Corp. (Bedford, MA).
The MDCK-OAT1, S2-OAT3, S2-OCT2 and HEK293-OATP1B1 cell lines were utilized in this study. […] Briefly, S2-OAT3, S2-OCT2 and S2-mock cells were trypsinized and uniformly suspended in the culture medium’s designated volume to provide a density of 2.0 × 10^5 cells/mL. A 1.0-mL aliquot of the cell suspension was added into each well of 24-well insert plates. HEK293-OATP1B1, MDCK-OAT1 and their mock cells were seeded in 24-well plates at a density of 1.5 × 10^5 cells/well. […] Three washes terminated the experiment with ice-cold DPBS buffer after removing the incubation buffer. Cells were lysed with 400 μL of […] sodium hydroxide solution. The cell lysate and 3.0 mL of aquasol-2 scintillation fluid were put into a scintillation flask. […] The final concentration of DMSO in the assay was less than 0.1%. All experiments were performed in triplicate.

SMILES: O=C(O)c1ccc(O)c(O)c1 [PCA, protocatechuic acid]
- inhibitory effect on OATP1B1-mediated uptake of 3H-ES [1]: no statistical differences
- inhibitory effect on OAT3 [2]: no significant inhibitory effect
